Data: patent publication US7601753B2, “Pyrrolidine melanocortin-specific compounds” (Palatin Technologies, Inc., priority 2001, dated 2009)
Where two headings read alike, the source gives them in different places. Non-standard residues stand in square brackets, D forms with d. Residues, ends and D or L forms follow the SMILES beside them. *: point of attachment. Hyp = O=C(O)[C@@H]1C[C@@H](O)CN1; Nle = CCCC[C@H](N)C(=O)O; NH(CH2)3NH2 = NCCCN*; Bn = c1ccc(C*)cc1

Experiments:
hMC4-R = target: T1, hMC4-R (Homo sapiens, UniProt P32245); experiment: Competitive inhibition binding assay, 125I-NDP-α-MSH, hMC4-R; conditions: 1 μM test compound, 0.4 nM 125I-NDP-α-MSH, hMC4-R membranes, mean of triplicates, results less than 0% reported as 0%; for inhibition at 1 µM: read-out: Inhibition at 1 μM MC4-R
T1 construct: expressed in transfected cells
Experimental: (§1) A competitive inhibition binding assay was conducted using membranes prepared from hMC3-R, hMC4-R, hMC5-R, and B-16 mouse melanoma cells (containing MC1-R) using 0.4 nM ^125I-NDP-α-MSH (New England Nuclear, Boston, Mass., USA) in 50 mM HEPES buffer containing 1 mM MgCl2, 2 mM CaCl2, and 5 mM KCl, at pH 7.2. The assay tube also contained a chosen concentration of the test compound of this invention, typically a 1 μM concentration, for determining its efficacy in inhibiting the binding of ^125I-NDP-α-MSH to its receptor.
(§2) Incubation was for 90 minutes at room temperature, after which the assay mixture was filtered and the membranes washed three times with ice cold buffer. The filter was dried and counted in a gamma counter for remaining radioactivity bound to the membranes. 100% specific binding was defined as the difference in radioactivity (cpm) bound to cell membranes in the absence and presence of 1 μM α-MSH. […] Each assay was conducted in triplicate and the actual mean values are described.

hMC5-R = target: T2, hMC5-R (Homo sapiens, UniProt P33032); experiment: Competitive inhibition binding assay, 125I-NDP-α-MSH, hMC5-R; conditions: 1 μM test compound, 0.4 nM 125I-NDP-α-MSH, hMC5-R membranes, mean of triplicates, results less than 0% reported as 0%; for inhibition at 1 µM: read-out: Inhibition at 1 μM MC5-R
T2 construct: expressed in transfected cells
Experimental: as §1, §2

hMC3-R = target: T3, hMC3-R (Homo sapiens, UniProt P41968); experiment: Competitive inhibition binding assay, 125I-NDP-α-MSH, hMC3-R; conditions: 1 μM test compound, 0.4 nM 125I-NDP-α-MSH, hMC3-R membranes, mean of triplicates, results less than 0% reported as 0%; for inhibition at 1 µM: read-out: Inhibition at 1 μM MC3-R
T3 construct: expressed in transfected cells
Experimental: as §1, §2

[1] = target: T4, MC1-R (B-16 mouse melanoma cells) (Mus musculus, UniProt Q01727); experiment: Competitive inhibition binding assay, 125I-NDP-α-MSH, MC1-R; conditions: 1 μM test compound; 0.4 nM 125I-NDP-α-MSH; B-16 mouse melanoma cell membranes; mean of triplicates; results less than 0% reported as 0%
T4 construct: membranes prepared from hMC3-R, hMC4-R, hMC5-R, and B-16 mouse melanoma cells (containing MC1-R); endogenous in cells; host or cells: B-16 mouse melanoma cells (membranes)
Experimental: as §1, §2

[2] = target: T5, MC5-R (HEK-293 cells expressing MC5-R) (Homo sapiens, UniProt P33032); experiment: Ki determination by the method of Example 3, MC5-R; assay type: cell-based
T5 construct: expressed in transfected cells; host or cells: HEK-293

[3] = target: T4, MC1-R (B-16 mouse melanoma cells); experiment: Ki determination by the method of Example 3, MC1-R; assay type: cell-based
[4] = target: T6, MC3-R (HEK-293 cells expressing MC3-R) (Homo sapiens, UniProt P41968); experiment: Ki determination by the method of Example 3, MC3-R; assay type: cell-based; conditions: bound in μM
T6 construct: expressed in transfected cells; host or cells: HEK-293

[5] = target: T7, MC4-R (HEK-293 cells expressing MC4-R) (Homo sapiens, UniProt P32245); experiment: Ki determination by the method of Example 3, MC4-R; assay type: cell-based; conditions: bound in μM
T7 construct: expressed in transfected cells; host or cells: HEK-293
T7 sequence (P32245 whole entry): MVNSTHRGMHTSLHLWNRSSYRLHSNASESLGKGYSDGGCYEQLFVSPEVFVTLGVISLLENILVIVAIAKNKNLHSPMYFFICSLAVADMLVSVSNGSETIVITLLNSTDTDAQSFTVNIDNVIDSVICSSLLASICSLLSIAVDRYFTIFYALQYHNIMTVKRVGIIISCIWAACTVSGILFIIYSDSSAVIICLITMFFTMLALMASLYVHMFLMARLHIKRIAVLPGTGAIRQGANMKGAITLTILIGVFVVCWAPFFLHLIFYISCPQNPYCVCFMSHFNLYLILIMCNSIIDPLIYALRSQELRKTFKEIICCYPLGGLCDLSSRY

T4 sequence (Q01727 whole entry): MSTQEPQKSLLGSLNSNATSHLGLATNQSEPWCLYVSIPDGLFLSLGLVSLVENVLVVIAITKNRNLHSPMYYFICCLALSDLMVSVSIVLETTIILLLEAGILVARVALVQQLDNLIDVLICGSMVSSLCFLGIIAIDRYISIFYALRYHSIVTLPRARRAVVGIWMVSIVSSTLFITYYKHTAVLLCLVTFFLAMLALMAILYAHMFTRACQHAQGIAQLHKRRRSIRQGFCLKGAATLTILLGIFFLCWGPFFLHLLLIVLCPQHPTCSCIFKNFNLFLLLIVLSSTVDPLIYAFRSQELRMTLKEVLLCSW
T1 sequence (P32245 whole entry): as the sequence (P32245 whole entry) above
T2 sequence (P33032 whole entry): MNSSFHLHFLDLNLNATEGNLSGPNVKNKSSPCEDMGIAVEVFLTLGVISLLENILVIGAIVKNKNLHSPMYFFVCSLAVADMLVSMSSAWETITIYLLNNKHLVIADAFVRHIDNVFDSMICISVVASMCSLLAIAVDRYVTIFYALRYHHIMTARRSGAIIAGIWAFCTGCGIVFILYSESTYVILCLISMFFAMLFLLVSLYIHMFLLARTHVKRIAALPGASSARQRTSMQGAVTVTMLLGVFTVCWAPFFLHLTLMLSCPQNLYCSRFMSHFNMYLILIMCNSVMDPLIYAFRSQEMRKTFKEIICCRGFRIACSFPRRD
T3 sequence (P41968 whole entry): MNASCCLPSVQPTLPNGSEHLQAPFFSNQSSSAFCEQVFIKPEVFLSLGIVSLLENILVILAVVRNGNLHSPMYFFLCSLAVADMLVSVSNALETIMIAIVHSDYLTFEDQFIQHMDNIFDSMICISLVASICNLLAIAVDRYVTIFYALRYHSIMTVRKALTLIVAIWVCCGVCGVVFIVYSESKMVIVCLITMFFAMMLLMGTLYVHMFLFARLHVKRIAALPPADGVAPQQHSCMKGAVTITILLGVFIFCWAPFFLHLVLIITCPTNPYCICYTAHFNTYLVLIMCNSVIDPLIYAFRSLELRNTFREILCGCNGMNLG
T5 sequence (P33032 whole entry): as the sequence (P33032 whole entry) above
T6 sequence (P41968 whole entry): as the sequence (P41968 whole entry) above

inhibition at 1 µM (hMC4-R) [%]	inhibition at 1 µM (hMC5-R) [%]	inhibition at 1 µM (hMC3-R) [%]	inhibition at 1 µM [1] [%]	Compound	also measured
0	5	0	0	[2H]N[C@@H](Cc1cnc[nH]1)C(=O)N[C@@H](Cc1ccccc1)C(=O)N1C[C@H](OCc2ccccc2)C[C@H]1C(N)=O [Example 28, His-D-Phe-Hyp(Bzl)-NH2]	–
11	0	0	13	[2H]N1CCC[C@@H]1C(=O)N[C@@H](Cc1ccccc1)C(=O)N1C[C@H](OCc2ccccc2)C[C@H]1C(=O)NCCCN [Example 44]	–
5	0	0	17	NCCCNC(=O)[C@@H]1C[C@@H](OCc2ccccc2)CN1C(=O)[C@@H](Cc1ccccc1)NC(=O)[C@H]1Cc2ccccc2CN1 [Example 24]	–
–	–	–	–	[2H]N[C@@H](Cc1cnc[nH]1)C(=O)N[C@@H](Cc1ccccc1)C(=O)N1C2CC[C@H](COc3ccc4ccccc4c3)N2C(=O)[C@@H]1CCCCN (stereo partly drawn) [Example 42]	Inhibition at 1 μM MC4-R (hMC4-R): 10%; Inhibition at 1 μM MC5-R (hMC5-R): 0%; Inhibition at 1 μM MC3-R (hMC3-R): 0%; Inhibition at 1 μM MC1-R [1]: 18%
6	4	0	0	[2H]N[C@@H](Cc1cnc[nH]1)C(=O)N[C@@H](Cc1ccccc1)C(=O)N1C[C@H](OCc2ccccc2)C[C@H]1C(=O)NCCCNC(=N)N [Example 29]	–
8	25	13	91	CCCC[C@H](NC(C)=O)C(=O)N[C@@H](C)C(=O)N[C@@H](Cc1cnc[nH]1)C(=O)N[C@H](Cc1ccccc1)C(=O)N1C[C@H](OCc2ccccc2)C[C@H]1C(=O)NCCCN [Example 9, Ac-Nle-Ala-His-D-Phe-Hyp(Bzl)-NH(CH2)3—NH2] (Ac-[Nle]AH[dF][Hyp](Bn)-{NH(CH2)3NH2})	Ki ([2]; bound in μM, read-out: Ki MC5-R): > 1 µM; Ki ([3]; MC1-R, values in nM, read-out: Ki (nM) MC1-R): 10 nM; Ki [4]: > 1 µM; Ki [5]: > 1 µM
29	48	6	40	NCCCNC(=O)[C@@H]1C[C@@H](OCc2ccccc2)CN1C(=O)[C@@H](Cc1ccc(Cl)cc1)NC(=O)[C@@H]1Cc2ccccc2CN1 [Example 21]	Ki ([2]; value in nM, read-out: Ki (nM) MC5-R): 1.15 µM
27	38	10	29	NCCCNC(=O)[C@@H]1C[C@@H](OCc2ccccc2)CN1C(=O)[C@@H](Cc1ccc(Cl)cc1)NC(=O)[C@H]1Cc2ccccc2CN1 [Example 22]	–
–	–	–	–	[2H]N[C@@H](Cc1ccccc1)C(=O)N1C2CC[C@H](COc3ccccc3)N2C(=O)[C@@H]1CCCCN (stereo partly drawn) [Example 36]	Inhibition at 1 μM MC4-R (hMC4-R): 8%; Inhibition at 1 μM MC5-R (hMC5-R): 0%; Inhibition at 1 μM MC3-R (hMC3-R): 41%; Inhibition at 1 μM MC1-R [1]: 0%
2	7	12	50	[2H]N[C@@H](Cc1cnc[nH]1)C(=O)N[C@@H](Cc1ccccc1)C(=O)N1C[C@H](OCc2ccccc2)C[C@H]1C(=O)NCCCCN [Example 25]	–
1	7	0	42	[2H]N[C@@H](Cc1cnc[nH]1)C(=O)N[C@@H](Cc1ccccc1)C(=O)N1C[C@H](OCc2ccccc2)C[C@H]1C(=O)NCCCCCN [Example 26]	–
0	2	0	48	[2H]N[C@@H](Cc1cnc[nH]1)C(=O)N[C@@H](Cc1ccccc1)C(=O)N1C[C@H](OCc2ccccc2)C[C@H]1C(=O)NCCCN [Example 12]	–
–	–	–	–	CCCCCCC(=O)N[C@@H](Cc1cnc[nH]1)C(=O)N[C@H](Cc1ccccc1)C(=O)N1C[C@H](OCc2ccccc2)C[C@H]1C(=O)NCCCNC(=N)N [Example 30, Heptanoyl-His-D-Phe-Hyp(Bzl)-NH(CH2)3—NH—C(═NH)—NH2]	Inhibition at 1 μM MC4-R (hMC4-R): 1%; Inhibition at 1 μM MC5-R (hMC5-R): 1%; Inhibition at 1 μM MC3-R (hMC3-R): 7%; Inhibition at 1 μM MC1-R [1]: 92%
2	8	0	36	[2H]N[C@@H](Cc1cnc[nH]1)C(=O)N[C@@H](Cc1ccccc1)C(=O)N1C[C@H](OCc2ccccc2)C[C@H]1C(=O)NCCCCCCN [Example 27]	–
–	–	–	–	[2H]N[C@@H](Cc1ccccc1)C(=O)N1C2CC[C@H](COc3ccc4ccccc4c3)N2C(=O)[C@@H]1CCCCN (stereo partly drawn) [Example 38]	Inhibition at 1 μM MC4-R (hMC4-R): 13%; Inhibition at 1 μM MC5-R (hMC5-R): 1%; Inhibition at 1 μM MC3-R (hMC3-R): 0%; Inhibition at 1 μM MC1-R [1]: 0%
6	14	0	34	NCCCNC(=O)[C@@H]1C[C@@H](OCc2ccccc2)CN1C(=O)[C@@H](Cc1ccccc1)NC(=O)[C@@H]1Cc2ccccc2CN1 [Example 23]	–
–	–	–	–	C[C@@H]1CN(C(=O)[C@H](N)Cc2ccc(Cl)cc2)[C@@H](CCCNC(=N)N)CN1CCc1ccc2ccccc2c1 [Example 15]	Inhibition at 1 μM MC4-R (hMC4-R): 43%; Inhibition at 1 μM MC5-R (hMC5-R): 34%; Inhibition at 1 μM MC3-R (hMC3-R): 46%; Inhibition at 1 μM MC1-R [1]: 85%

Compound	inhibition at 1 µM (hMC4-R) [%]	inhibition at 1 µM (hMC5-R) [%]	inhibition at 1 µM (hMC3-R) [%]	inhibition at 1 µM [1] [%]	also measured
CCCC[C@H](N)C(=O)N[C@@H](C)C(=O)N[C@@H](Cc1cnc[nH]1)C(=O)N[C@H](Cc1ccccc1)C(=O)N1C[C@H](OCc2ccccc2)C[C@H]1C(=O)NCCCN [Example 10] (H-[Nle]AH[dF][Hyp](Bn)-{NH(CH2)3NH2})	2	7	6	83	Ki [3]: 70 nM
